This is an account of results in ChEMBL document CHEMBL5370672, “Discovery of Orally Bioavailable Phthalazinone Analogues as an ENPP1 Inhibitor for STING-Mediated Cancer Immunotherapy” (J Med Chem, 2023).

In general, Tmax refers to the time from dosing to the highest level. As usually defined, the fraction unbound is free concentration divided by total concentration. Usually half-life stands for the time needed for the level to fall by half in the phase considered. As usually defined, the IC50 is the concentration at which inhibition is half-maximal. The term MRT last denotes a mean duration of stay, worked out from the concentration-time curve. A word on the AUC(0-t): it is the area under the concentration-time curve up to a stated or last time point. High values mean high exposure, low ones low exposure. A word on the clearance: it is a measure of how efficiently the substance is removed, as volume per time. Higher therefore signals a high capacity for elimination. As a reminder, the bioavailability is dose-corrected exposure relative to a reference, in per cent. The low end stands for poor availability, the high end for good availability.

The test system of one series is CT26. Briefly: Antitumor activity against mouse CT26 cells implanted in BALB/c mouse assessed as tumor growth inhibition at 200 mg/kg, po administered for 2 weeks and measured on day 15 in the presence of anti-PD-L1 antibody relative to control. The format is functional. The settings on record: CT26, 360 h, time 15 day, read-out: TGI.
The target of series [1] is Stimulator of interferon genes protein (Homo sapiens) (UniProt Q86WV6). Put plainly: Activation of STING-mediated immune response in human THP-1 cells transfected with ISRE reporter assessed as increase in cGAMP-induced ISRE activation by measuring fold change at 25 to 50 uM preincubated with compound for 1 hrs followed by cGAMP addition and measured after 24 hrs by luciferase reporter gene assay. The format is cell-based. The settings on record: filed as activator, dose 25-50 µM, time 25.0 hrs. In general terms: Reporter assays use an easily measured gene product as a stand-in for the process of interest.

A short description of series [2]: Tmax in BALB/c mouse at 20 mg/kg, po measured after 24 hrs by LC-MS/MS analysis. The format is ADME, organism-based. The settings on record: in vivo.
Series [3] in a line: Protein binding in mouse plasma assessed as unbound fraction by equilibrium dialysis based LC-MS/MS analysis. The format is ADME, cell-free. (Equilibrium dialysis compares concentrations on both sides of a semipermeable membrane.)
Series [4] can be described thus: Metabolic stability in human liver microsome assessed as half-life by LC/MS analysis. The format is ADME. The settings on record: liver microsomes.
Series [5] in a line: Toxicity in BALB/c mouse implanted with mouse CT26 cells assessed as effect on body weight at 200 mg/kg, po preadministered with compound for 2 weeks followed by reinoculation of CT26 cells and measured on day 19. The format is organism-based. The settings on record: in vivo, 456 h, time 19 day.
The target of series [6] is Stimulator of interferon genes protein (Homo sapiens) (UniProt Q86WV6). Briefly: Activation of STING-mediated immune response in human HCT-116 cells transfected with ISRE reporter assessed as increase in cGAMP-induced ISRE activation at 25 to 100 uM preincubated with compound for 1 hrs followed by cGAMP addition and measured after 48 hrs by luciferase reporter gene assay. The format is cell-based. Particulars: filed as activator, dose 25-100 µM, time 49.0 hrs.

Series [7] has as its target T1, Ectonucleotide pyrophosphatase/phosphodiesterase family member 1 (Homo sapiens, UniProt P22413).
T1 sequence (P22413 whole entry): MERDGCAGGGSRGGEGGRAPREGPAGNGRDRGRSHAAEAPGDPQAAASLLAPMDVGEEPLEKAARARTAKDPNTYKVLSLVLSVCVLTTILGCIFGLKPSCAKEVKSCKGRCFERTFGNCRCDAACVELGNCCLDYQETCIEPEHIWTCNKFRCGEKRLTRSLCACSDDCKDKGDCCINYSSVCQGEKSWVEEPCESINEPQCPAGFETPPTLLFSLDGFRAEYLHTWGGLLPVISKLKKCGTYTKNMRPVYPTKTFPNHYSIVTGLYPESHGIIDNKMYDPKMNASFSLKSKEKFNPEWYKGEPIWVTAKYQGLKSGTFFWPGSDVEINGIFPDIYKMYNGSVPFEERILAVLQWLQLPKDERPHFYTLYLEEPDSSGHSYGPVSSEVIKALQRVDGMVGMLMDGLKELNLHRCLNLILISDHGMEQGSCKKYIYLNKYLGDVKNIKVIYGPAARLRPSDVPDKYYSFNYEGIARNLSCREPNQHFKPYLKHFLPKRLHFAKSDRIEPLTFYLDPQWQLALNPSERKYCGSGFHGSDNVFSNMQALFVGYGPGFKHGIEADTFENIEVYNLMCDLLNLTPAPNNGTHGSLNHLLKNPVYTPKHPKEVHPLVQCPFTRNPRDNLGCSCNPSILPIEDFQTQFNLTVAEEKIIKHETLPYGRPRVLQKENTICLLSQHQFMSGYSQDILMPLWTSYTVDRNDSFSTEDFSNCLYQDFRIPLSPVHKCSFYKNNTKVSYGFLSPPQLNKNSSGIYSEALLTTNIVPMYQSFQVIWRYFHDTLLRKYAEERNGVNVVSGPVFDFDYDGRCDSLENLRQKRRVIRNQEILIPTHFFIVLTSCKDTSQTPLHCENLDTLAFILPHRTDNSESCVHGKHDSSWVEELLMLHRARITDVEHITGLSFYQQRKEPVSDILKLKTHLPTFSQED
Put plainly: Inhibition of recombinant human ENPP1 using cGAMP as substrate assessed as inhibition of cGAMP hydrolysis preincubated for 5 to 10 mins followed by substrate addition and measured after 90 mins by AMP-Glo reagent based luminescence plate reader analysis.

The nature of series [8]: Half-life in BALB/c mouse at 5 mg/kg, iv measured after 24 hrs by LC-MS/MS analysis. The format is ADME, organism-based. Particulars: in vivo.
Series [9] in a line: MRT (0 to t) in BALB/c mouse at 5 mg/kg, iv measured after 24 hrs by LC-MS/MS analysis. The format is ADME, organism-based. Particulars: in vivo.
Series [10] can be described thus: AUC (0 to t) in BALB/c mouse at 5 mg/kg, iv measured after 24 hrs by LC-MS/MS analysis. Also on record: dose 5 mg/kg, time 24 hrs, route iv. The settings on record: in vivo. The format is ADME, organism-based.
Series [11] can be described thus: Tmax in BALB/c mouse at 5 mg/kg, iv measured after 24 hrs by LC-MS/MS analysis. The format is ADME, organism-based. Particulars: in vivo.
Series [12] deals with Stimulator of interferon genes protein (Homo sapiens) (UniProt Q86WV6). Briefly: Activation of STING-mediated immune response in human HCT-116 cells transfected with ISRE reporter assessed as increase in cGAMP-induced ISRE activation preincubated with compound for 1 hrs followed by cGAMP addition and measured after 48 hrs by luciferase reporter gene assay. The format is cell-based. Particulars: filed as activator, dose <= 200.0 µM, time 49.0 hrs.

A further series has as its system THP-1. Put plainly: Cytotoxicity against human THP-1 cells assessed as reduction in cell viability upto 50 uM incubated for 24 hrs in the presence of cGAMP by celltiter 96 aqueous one solution cell proliferation assay. The format is toxicity, cell-based. Particulars: thp-1, 24 h.
A further series concerns the target Cytochrome P450 3A4 (Homo sapiens, UniProt P08684). Briefly: Inhibition of CYP3A4 in human liver microsomes. The format is ADME, Microsome. (In general: Microsomes from liver hold many membrane-bound enzymes, among them those of drug oxidation.)
A short description of series [13]: Clearance in BALB/c mouse at 5 mg/kg, iv measured after 24 hrs by LC-MS/MS analysis. The format is ADME, organism-based. Particulars: in vivo.
Series [14] can be described thus: Oral bioavailability in BALB/c mouse at 20 mg/kg measured after 24 hrs by LC-MS/MS analysis. The format is ADME, organism-based. The settings on record: in vivo.

Each structure is given as a SMILES string. Activity calls are given as the source filed them.

Stimulator of interferon genes protein (Homo sapiens), sequence (Q86WV6 whole entry): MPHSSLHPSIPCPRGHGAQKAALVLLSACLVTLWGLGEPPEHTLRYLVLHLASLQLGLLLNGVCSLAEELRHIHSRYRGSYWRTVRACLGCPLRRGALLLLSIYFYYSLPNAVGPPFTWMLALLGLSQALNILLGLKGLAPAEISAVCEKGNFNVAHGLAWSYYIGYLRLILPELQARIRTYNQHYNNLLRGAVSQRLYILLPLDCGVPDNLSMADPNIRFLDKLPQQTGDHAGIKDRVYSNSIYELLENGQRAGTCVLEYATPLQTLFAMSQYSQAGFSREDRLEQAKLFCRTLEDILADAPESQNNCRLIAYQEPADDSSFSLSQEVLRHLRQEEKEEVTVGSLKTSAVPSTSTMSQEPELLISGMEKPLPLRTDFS
Cytochrome P450 3A4, sequence (P08684 whole entry): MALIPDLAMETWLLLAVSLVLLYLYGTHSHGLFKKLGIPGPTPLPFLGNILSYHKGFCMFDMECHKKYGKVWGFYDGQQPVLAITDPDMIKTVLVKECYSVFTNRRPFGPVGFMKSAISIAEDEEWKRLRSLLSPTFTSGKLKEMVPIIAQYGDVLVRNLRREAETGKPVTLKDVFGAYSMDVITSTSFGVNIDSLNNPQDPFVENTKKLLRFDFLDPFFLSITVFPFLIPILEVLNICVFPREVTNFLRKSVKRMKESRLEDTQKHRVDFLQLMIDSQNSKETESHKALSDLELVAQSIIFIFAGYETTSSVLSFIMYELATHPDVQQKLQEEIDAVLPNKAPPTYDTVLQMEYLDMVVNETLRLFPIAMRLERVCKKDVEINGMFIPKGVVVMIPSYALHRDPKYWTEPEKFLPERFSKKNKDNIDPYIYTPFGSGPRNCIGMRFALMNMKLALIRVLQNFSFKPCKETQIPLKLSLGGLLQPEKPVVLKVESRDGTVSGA

For the compound `Cn1nc(Cc2ccc(NS(N)(=O)=O)cc2)c2ccccc2c1=O`, the inhibition in vivo at 200 mg/kg in the series on CT26 is 69%. For the same compound, the fold change (FC) in [1] was under 30. Moreover, the time of peak concentration (Tmax) in series [2] was found to be 1.67 h; in [11], 4.8 min. For the same compound, in [3], the fraction unbound amounted to 0.09. For the same compound, the half-life in series [4] was over 2 h; in series [8] it was 3.61 h. The figures for the Activity result (in series [5]; in [12]; in the series with THP-1) were “Non-Toxic”, “Dose-Dependent Effect” and “Non-Toxic”, respectively. For the same compound, the outcome in series [6] was Active. For the same compound, the IC50 in [7] was 68 nM; against Cytochrome P450 3A4, over 10000 nM. The same compound registered an MRT last at 24 h in [9] of 2.83 h. Further, the AUC(0-t) at 24 h in series [10] amounted to 30400 ng·h/mL. Besides, the clearance in series [13] came to 2.88 mL/min/kg. In addition, the bioavailability in series [14] came to 65.4%.
